This passage reports IC50, AC50 and EC50 results from ChEMBL document CHEMBL1201862, “PubChem BioAssay data set” (2004).

Structures are written as SMILES. Calls of active or inactive are those of the source. A value given as a limit tells only on which side of the number the result lay.

The target in one experiment is T1, Caspase-3 (Homo sapiens, UniProt P42574).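 Also: Dose-response selectivity test against caspase-3 for candidate inhibitors of sentrin-specific proteases (SENPs).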
T1 sequence (P42574 whole entry): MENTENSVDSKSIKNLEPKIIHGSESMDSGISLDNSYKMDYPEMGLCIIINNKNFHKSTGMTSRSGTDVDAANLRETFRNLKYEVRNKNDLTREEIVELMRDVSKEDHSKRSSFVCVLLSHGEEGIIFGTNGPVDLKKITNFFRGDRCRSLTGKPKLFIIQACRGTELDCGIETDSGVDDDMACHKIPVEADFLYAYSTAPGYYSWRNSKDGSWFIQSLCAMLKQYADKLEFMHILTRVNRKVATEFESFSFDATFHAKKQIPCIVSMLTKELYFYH
In kind it is functional.

Experiment [1] addresses T2, Sentrin-specific protease 8 (Homo sapiens, UniProt Q96LD8).
T2 sequence (Q96LD8 whole entry): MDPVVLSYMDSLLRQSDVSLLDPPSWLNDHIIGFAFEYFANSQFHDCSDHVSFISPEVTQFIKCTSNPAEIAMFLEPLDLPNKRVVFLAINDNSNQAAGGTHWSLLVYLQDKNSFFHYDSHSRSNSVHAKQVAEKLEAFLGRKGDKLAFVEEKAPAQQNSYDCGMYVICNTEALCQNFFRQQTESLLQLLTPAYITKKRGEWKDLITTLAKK
It counts as functional.

The target in experiment [2] is T3, Polyadenylate-binding protein 1 (Homo sapiens, UniProt P11940). Briefly: MLLE domain peptide-binding blockers, IC50 – biochemical, fluorescence polarization, FITC-PAM2 peptide, dose response (AID 602259). It counts as functional. As to conditions: read-out: IC50_Mean.
Experiment [3] has as its target T4, Sentrin-specific protease 7 (Homo sapiens, UniProt Q9BQF6).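 Also: Luminescence-based dose-response confirmation of ultra-high-throughput screening hits, measuring inhibition of SENP7.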
T4 sequence (Q9BQF6 whole entry): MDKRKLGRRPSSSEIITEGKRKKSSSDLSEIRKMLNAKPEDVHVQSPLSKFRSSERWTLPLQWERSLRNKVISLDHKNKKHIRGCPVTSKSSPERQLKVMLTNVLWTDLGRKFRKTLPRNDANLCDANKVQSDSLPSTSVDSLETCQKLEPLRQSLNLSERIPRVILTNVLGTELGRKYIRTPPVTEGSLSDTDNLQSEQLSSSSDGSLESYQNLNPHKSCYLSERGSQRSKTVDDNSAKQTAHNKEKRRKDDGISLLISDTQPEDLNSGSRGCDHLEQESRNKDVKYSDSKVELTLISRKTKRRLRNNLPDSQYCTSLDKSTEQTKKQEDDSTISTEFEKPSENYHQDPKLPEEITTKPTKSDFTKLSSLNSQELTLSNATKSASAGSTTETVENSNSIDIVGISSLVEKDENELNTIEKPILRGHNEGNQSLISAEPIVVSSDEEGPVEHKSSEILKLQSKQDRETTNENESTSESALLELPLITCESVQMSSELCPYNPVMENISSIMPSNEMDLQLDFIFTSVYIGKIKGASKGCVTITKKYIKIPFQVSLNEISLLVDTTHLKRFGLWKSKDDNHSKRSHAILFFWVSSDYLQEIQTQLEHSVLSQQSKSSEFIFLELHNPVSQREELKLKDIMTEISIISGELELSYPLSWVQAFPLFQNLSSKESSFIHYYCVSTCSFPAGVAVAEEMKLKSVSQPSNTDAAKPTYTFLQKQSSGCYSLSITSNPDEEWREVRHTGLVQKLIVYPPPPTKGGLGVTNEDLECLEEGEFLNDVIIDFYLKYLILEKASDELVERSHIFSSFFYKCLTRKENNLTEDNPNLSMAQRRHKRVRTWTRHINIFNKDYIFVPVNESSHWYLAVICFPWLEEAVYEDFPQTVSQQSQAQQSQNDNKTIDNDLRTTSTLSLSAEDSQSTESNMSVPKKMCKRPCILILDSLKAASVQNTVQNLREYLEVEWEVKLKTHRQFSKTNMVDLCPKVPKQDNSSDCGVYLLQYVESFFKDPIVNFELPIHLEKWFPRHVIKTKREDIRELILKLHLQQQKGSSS
In kind it is functional.

The target of experiment [4] is T3, Polyadenylate-binding protein 1. The experiment in a line: MLLE binding blockers, Cy5 peptide tracer – biochemical, fluorescence polarization, Cy5-PAM2 peptide, secondary, miRNA deadenylation inhibitor project, dose response (AID 602260). To be noted: read-out: IC50_Mean. It counts as functional. For orientation: In fluorescence polarisation assays a small probe gives low polarisation when free and higher when bound to something large.

The target in experiment [5] is T5, Sentrin-specific protease 6 (Homo sapiens, UniProt Q9GZR1).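 Also: Luminescence-based dose-response confirmatory assay of SENP6 inhibition, following up an ultra-high-throughput screen.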
T5 sequence (Q9GZR1 whole entry): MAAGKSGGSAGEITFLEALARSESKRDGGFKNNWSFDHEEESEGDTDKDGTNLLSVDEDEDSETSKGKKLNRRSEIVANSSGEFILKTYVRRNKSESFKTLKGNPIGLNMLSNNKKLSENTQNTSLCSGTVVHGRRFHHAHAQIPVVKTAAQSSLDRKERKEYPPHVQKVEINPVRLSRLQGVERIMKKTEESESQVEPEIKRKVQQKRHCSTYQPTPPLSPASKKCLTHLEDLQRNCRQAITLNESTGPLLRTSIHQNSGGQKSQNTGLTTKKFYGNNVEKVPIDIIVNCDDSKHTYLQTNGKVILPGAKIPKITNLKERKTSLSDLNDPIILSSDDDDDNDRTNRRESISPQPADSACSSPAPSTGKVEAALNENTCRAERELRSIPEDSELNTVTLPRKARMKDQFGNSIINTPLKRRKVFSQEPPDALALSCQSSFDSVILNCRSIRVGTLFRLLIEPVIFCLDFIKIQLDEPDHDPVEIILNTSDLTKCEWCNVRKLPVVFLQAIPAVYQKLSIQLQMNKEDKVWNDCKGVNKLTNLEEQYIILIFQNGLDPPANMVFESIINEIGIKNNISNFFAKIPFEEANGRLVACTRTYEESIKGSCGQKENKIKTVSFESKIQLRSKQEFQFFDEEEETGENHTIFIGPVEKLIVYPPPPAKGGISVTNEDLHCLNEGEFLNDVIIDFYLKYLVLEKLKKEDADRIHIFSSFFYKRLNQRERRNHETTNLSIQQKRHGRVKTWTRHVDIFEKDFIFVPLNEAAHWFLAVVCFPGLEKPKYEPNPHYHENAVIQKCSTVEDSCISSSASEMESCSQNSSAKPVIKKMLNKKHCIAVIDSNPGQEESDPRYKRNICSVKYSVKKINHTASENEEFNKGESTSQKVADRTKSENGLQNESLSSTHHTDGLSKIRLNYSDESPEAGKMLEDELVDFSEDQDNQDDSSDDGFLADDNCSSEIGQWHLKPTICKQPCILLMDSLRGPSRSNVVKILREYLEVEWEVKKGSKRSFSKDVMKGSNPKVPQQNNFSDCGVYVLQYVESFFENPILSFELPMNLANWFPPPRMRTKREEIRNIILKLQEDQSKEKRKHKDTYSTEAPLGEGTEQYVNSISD
It counts as functional.

Experiment [6] has as its target FAD-linked sulfhydryl oxidase ALR (Homo sapiens, UniProt P55789). The experiment in a line: ALR-catalysed DTT oxidation blockers – biochemical, H2O2 detection, luminescence, cherry-pick, dose response (AID 493248).
Experiment [7] addresses T6, Short transient receptor potential channel 4 (Mus musculus, UniProt Q9QUQ5).
T6 sequence (Q9QUQ5 whole entry): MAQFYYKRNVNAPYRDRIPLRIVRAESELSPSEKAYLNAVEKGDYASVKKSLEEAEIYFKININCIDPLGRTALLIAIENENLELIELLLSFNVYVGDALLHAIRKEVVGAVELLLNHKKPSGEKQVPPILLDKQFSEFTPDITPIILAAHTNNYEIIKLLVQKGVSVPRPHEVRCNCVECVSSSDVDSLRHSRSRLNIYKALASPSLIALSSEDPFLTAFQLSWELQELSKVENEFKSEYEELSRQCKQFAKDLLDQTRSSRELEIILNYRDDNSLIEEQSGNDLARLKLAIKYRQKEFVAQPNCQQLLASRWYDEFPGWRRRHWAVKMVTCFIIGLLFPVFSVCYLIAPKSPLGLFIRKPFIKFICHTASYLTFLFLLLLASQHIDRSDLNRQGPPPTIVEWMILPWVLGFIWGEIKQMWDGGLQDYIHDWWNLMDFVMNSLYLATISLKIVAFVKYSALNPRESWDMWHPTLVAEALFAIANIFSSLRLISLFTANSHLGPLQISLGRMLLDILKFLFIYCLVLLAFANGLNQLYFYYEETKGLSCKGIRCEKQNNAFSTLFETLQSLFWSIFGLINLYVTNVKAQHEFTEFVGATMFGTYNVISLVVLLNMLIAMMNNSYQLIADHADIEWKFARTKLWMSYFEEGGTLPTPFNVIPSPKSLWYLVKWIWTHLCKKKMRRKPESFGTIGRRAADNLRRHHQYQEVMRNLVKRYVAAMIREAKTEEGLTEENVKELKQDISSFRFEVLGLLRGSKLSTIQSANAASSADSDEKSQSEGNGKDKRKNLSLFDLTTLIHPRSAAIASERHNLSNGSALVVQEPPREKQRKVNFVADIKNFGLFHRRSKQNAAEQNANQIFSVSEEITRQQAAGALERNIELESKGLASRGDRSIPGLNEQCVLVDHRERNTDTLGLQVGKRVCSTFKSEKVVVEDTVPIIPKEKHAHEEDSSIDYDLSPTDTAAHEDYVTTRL
Briefly: block of DAMGO-driven TRPC4 calcium entry – cell-based, HEK293 TRPC4/mu-opioid, Fluo-4 calcium, dose response (AID 434942).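 Also: potency of inhibitors blocking the TRPC4 calcium response.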 In kind it is functional.

Experiment [8] addresses T7, High affinity choline transporter 1 (Homo sapiens, UniProt Q9GZV3).
T7 sequence (Q9GZV3 whole entry): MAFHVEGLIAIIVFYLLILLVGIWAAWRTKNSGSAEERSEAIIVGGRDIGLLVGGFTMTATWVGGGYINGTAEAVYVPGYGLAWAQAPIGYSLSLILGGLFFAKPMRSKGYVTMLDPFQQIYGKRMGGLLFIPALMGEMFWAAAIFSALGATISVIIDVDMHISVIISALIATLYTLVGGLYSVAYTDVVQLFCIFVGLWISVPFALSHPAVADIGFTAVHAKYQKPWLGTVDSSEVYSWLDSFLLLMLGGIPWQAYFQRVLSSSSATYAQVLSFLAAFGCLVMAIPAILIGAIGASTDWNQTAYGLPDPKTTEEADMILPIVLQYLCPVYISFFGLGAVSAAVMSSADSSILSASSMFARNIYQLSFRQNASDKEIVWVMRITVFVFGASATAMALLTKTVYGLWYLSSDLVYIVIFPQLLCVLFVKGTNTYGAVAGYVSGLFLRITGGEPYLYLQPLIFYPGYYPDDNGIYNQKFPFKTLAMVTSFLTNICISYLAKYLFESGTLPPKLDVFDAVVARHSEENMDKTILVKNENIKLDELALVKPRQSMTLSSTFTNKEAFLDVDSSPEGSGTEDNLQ
The experiment in a line: human choline transporter blockers, potency – cell-based, 5-point CRC, membrane potential dye, dose response (AID 504840). It counts as functional.

A short description of experiment [9]: cells. In kind it is functional, cell-based.
A short description of experiment [10]: cells. It counts as functional, cell-based. The source holds these as a separate data set.

T3 sequence (P11940 whole entry, the tested form may be a part): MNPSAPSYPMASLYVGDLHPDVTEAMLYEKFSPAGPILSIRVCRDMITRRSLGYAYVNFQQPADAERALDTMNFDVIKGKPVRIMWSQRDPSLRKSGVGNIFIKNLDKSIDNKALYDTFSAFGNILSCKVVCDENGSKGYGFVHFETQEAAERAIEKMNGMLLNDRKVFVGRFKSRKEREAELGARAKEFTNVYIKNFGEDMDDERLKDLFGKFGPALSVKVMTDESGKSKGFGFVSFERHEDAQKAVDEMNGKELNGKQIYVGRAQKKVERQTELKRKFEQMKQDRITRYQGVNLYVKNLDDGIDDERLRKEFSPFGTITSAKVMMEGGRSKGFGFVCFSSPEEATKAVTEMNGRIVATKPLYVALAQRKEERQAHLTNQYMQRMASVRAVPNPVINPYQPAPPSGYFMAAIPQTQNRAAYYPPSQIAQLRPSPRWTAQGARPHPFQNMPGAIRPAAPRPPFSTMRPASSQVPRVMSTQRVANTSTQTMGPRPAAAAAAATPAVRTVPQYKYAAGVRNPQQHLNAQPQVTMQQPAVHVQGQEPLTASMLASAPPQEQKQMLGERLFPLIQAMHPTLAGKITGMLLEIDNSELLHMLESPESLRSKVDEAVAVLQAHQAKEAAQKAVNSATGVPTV
FAD-linked sulfhydryl oxidase ALR, sequence (P55789 whole entry): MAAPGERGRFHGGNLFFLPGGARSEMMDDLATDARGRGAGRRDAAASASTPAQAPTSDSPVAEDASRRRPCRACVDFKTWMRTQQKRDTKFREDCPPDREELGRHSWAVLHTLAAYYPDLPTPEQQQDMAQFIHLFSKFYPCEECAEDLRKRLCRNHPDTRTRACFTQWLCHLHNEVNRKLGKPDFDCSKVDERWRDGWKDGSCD

Take `O=C(c1ccc(F)cc1)n1c(=S)nc2ccccn21`: the IC50 at Caspase-3 is 52.2 µM (active); in [1], 86.1 µM (active); in [2] it was > 66 µM (inactive); in experiment [3], 18.1 µM (active); in [4] it was > 66 µM (inactive); in experiment [5] it was 60.4 µM (active).
Broadly, the AC50 is the concentration at which the activity in the assay is half-maximal. The EC50 is the concentration needed to bring the measured effect to its halfway point. On to `c1ccc(Nc2[nH]nnc2-c2ccccc2)cc1`, for which the AC50 in [6] was > 100 µM (inactive). The EC50 in experiment [7] was 1.88 µM (active).
As for `CCC1=Nc2cc(C(=O)N3CCC4(CC3)OCCO4)ccc2Sc2ccc(C)cc21`, the EC50 in experiment [7] was 7.5 µM (active).
Regarding `S=C(NCCCN1CCOCC1)Nc1cccc(-c2nnc3n2CCCCC3)c1`, the IC50 in [8] is 13.9 µM (active).
Take `CCOC(=O)c1sc(NC(=O)c2ccc3nc[nH]c3c2)nc1C`: the IC50 on Caspase-3 was 7.1 µM (active); in experiment [1], 3.4 µM (active); in [3], 2.47 µM (active); in experiment [5], 5.17 µM (active).
With `CN1CCN(c2ccc(NC(=O)c3ccc(Br)o3)cc2)CC1`, in experiment [7], the EC50 is 0.841 µM (active).
In the case of `CC(C)=CCN1CCN(Cc2cn(C(C)C)c3ccccc23)CC1CCO` (stereo not drawn), in experiment [8], the IC50 is 13.2 µM (active).
Same read-out and setting: to `CCOC(=O)c1sc(NC(=O)CCN2CCN(C)CC2)c(C(=O)OCC)c1C` belongs 14.5 µM (active).
With `O=C(CCc1ccccc1)Nc1ccnn1C1CCN(C/C=C/c2ccccc2)CC1`, the EC50 is > 350 µM (not active) in “cells [9]”, > 350 µM (not active) in “cells [10]” and 1.5 µM (active) in experiment [7].
As to `COc1cccc(OC)c1OCCCCCc1c(C)n[nH]c1C`, in experiment [8], the IC50 was 9.12 µM (active).
`Cc1cc(OCC(=O)Nc2ccc(N3CCN(C)CC3)cc2)ccc1Cl`: in experiment [7], the EC50 was 2.66 µM (active).
Take `CC1CCN(S(=O)(=O)c2ccc3c(c2)N(CC(=O)NCCN2C(C)CCCC2C)C(=O)CS3)CC1` (stereo not drawn): in experiment [8], the IC50 is 11.3 µM (active).
